Consider 1 compound from US9808470B2, “Estrogenic components for use in the treatment of neurological disorders” (UNIVERSITE DE LIEGE, priority 2012, dated 2017).

Assay type in all cases: in vivo
The test system of assay [1] is glial fibrillary acidic protein (GFAP). In words: Ex.8 neuroprotective HIE rat model: blood serum GFAP ELISA. The method, then: Newborn rat pups were assigned to one of the following 14 groups from postnatal day 4 (FIG. 23(A)): Sham group (n=12), Vehicle group (n=17), 5 mg/kg/day E4 (n=13), 10 mg/kg/day E4 (n=10), 5 mg/kg/day E4+1.6 mg/kg/day PROG (n=11), 10 mg/kg/day E4+1.6 mg/kg/day PROG (n=11), 5 mg/kg/day E4+16 mg/kg/day PROG (n=11), 10 mg/kg/day E4+16 mg/kg/day PROG (n=11), 5 mg/kg/day E4+136 ng//kg/day E2 (n=11), 10 mg/kg/day E4+136 ng/kg/day E2 (n=11), 5 mg/kg/day E4+1.6 mg/kg/day PROG+136 ng/kg/day (n=13) E2, 10 mg/kg/day E4+1.6 mg/kg/day PROG+136 ng/kg/day E2 (n=16), 5 mg/kg/day E4+16 mg/kg/day PROG+136 ng/kg/day E2 (n=11), 10 mg/kg/day E4+16 mg/kg/day PROG+136 ng/kg/day groups (n=13). Intraperitoneal injections of the pups from study groups were performed from postnatal day 4 to postnatal day 7 inclusively. At day 7, 30 minutes after last injection, animals were anesthetized with isoflurane (induction, 3.0%; maintenance, 1.5%), and the rat pups from vehicle and all the other groups, except the sham group, passed through surgery encompassing left common carotid artery double ligation and cut. After the procedure, the pups were returned to their dams and were allowed to recover for 1 hour. The pups were then placed in the humidified hypoxic in vivo cabinet (CoyLab, Grass Lake, Mich., USA). […]

A short description of assay [2]: Ex.4 therapeutic HIE rat model: brain weight. The conditions noted are these: PND14. The method, then:
Animals were then perfused transcardially with 0.9% saline solution at 4° C., and then with 4% paraformaldehyde in a 0.1-mol/L phosphate-buffered saline solution (pH 7.4) at 4° C. The brains were quickly isolated, weighed and immersed in the same fixative solution at 4° C. for 24 hours, dehydrated with a graded series of ethanol and xylene, and embedded in paraffin.
To study the therapeutic effect of estetrol, newborn rat pups were assigned to one of the following 6 groups at postnatal day 7: sham group (n=29), vehicle group (n=20), 1 mg/kg E4 group (n=16), 5 mg/kg E4 group (n=19), 10 mg/kg day E4 (n=17) and 50 mg/kg day E4 group (n=15). At postnatal day 7 animals were anesthetized with isoflurane (induction, 3.0%; maintenance, 1.5%), and the rat pups from vehicle and E4 groups passed through surgery encompassing left common carotid artery double ligation and cut. After surgery, the pups were returned to their dams and allowed to recover for 1 hour. The pups were then placed in a humidified hypoxic in vivo cabinet (CoyLab). Hypoxia was produced by the inhalation of 11%-8% of oxygen balanced by nitrogen at decreased concentration of oxygen for 20 minutes, followed by inhalation of 8% oxygen and 92% nitrogen at constant concentration for 35 minutes. All the manipulations were performed at 37° C.
Upon retrieval from the hypoxia chamber the rat pups were injected intraperitoneally either by vehicle (vehicle group) or by E4 (1 mg/kg, 5 mg/kg, 10 mg/kg or 50 mg/kg) in accordance to the group assignment. The animals from the sham group went through similar procedures but proceeded neither left common carotid artery ligation and cut followed by hypoxia nor vehicle or estetrol administration. Rat pups recovered with their dams until being sacrificed at postnatal day 14.

In assay [3] the test system is glial fibrillary acidic protein (GFAP). In words: Ex.8 therapeutic HIE rat model: blood serum GFAP ELISA. The note with it: 10 mg/kg/day E4, PND14. The method, then:
To study the therapeutic effect of estetrol, newborn rat pups were assigned to one of the following 14 groups at postnatal day 7 (FIG. 23(B)): Sham group (n=12), Vehicle (n=15), 5 mg/kg/day E4 (n=11), 10 mg/kg/day E4 (n=11), 5 mg/kg/day E4+1.6 mg/kg/day PROG (n=11), 10 mg/kg/day E4+1.6 mg/kg/day PROG (n=11), 5 mg/kg/day E4+16 mg/kg/day PROG (n=11), 10 mg/kg/day E4+16 mg/kg/day PROG (n=13), 5 mg/kg/day E4+136 ng//kg/day E2 (n=11), 10 mg/kg/day E4+136 ng/kg/day E2 (n=11), 5 mg/kg/day E4+1.6 mg/kg/day PROG+136 ng/kg/day E2 (n=12), 10 mg/kg/day E4+1.6 mg/kg/day PROG+136 ng/kg/day E2 (n=11), 5 mg/kg/day E4+16 mg/kg/day PROG+136 ng/kg/day E2 (n=11), 10 mg/kg/day E4+16 mg/kg/day PROG+136 ng/kg/day (n=12) groups. […] After surgery, the pups were returned to their dams and allowed to recover for 1 hour. The pups were then placed in a humidified hypoxic in vivo cabinet (CoyLab). Hypoxia was produced by the inhalation of 11%-8% of oxygen balanced by nitrogen at decreased concentration of oxygen for 20 minutes, followed by inhalation of 8% oxygen and 92% nitrogen at constant concentration for 35 minutes. All the manipulations were performed at 37° C. Upon retrieval from the hypoxia chamber the rat pups were injected ip once either by vehicle (vehicle group) or by in accordance to the group assignment. […]

With `C[C@]12CC[C@@H]3c4ccc(O)cc4CC[C@H]3[C@@H]1[C@@H](O)[C@@H](O)[C@@H]2O` [E4, 1,3,5(10)-estratrien-3,15α,16α,17β-tetrol], the “concentration of GFAP in blood serum” value amounted to 6220.49 ± 1763.17 pg/mL in assay [1] (5 mg/kg/day, PND14) and 12413.45 ± 2243.05 pg·mL in assay [1] (10 mg/kg/day E4, PND14). For the same compound, the brain weight is 1.099 ± 0.037 g in assay [2] (1 mg/kg E4 single ip dose after HI), 1.06 ± 0.035 g in assay [2] (5 mg/kg E4 single ip dose after HI), 1.12 ± 0.33 g in assay [2] (10 mg/kg E4 single ip dose after HI) and 1.163 ± 0.025 g in assay [2] (50 mg/kg E4 single ip dose after HI). For the same compound, in assay [3], the “GFAP protein concentration in blood serum” value was 10806.52 ± 1015.19 pg/mL.
